From patent US20240124439A1, “Pyrido[2,3-D]Imidazole Derivatives and Their Use As Inhibitors of ITK for the Treatment of Skin Disease” (Pfizer Inc., priority 2020, published 2024)

Legend:
[1] = test system: activated CD4+ human T-cells (IL-2); assay: IL-2 inhibition in supernatants from activated CD4+ human T-cells (cisbio HTRF); assay type: cell-based; conditions: T-cell; CD3/CD28-activated CD4+ human T cells, ImmunoCult stimulation 20 to 24 hrs; geometric mean of count n
Method: IL-2 inhibition activity in supernatants from activated CD4+ human T-cells was determined by measuring the effect of a test compound on the activity using the cisbio HTRF™ technology.
Human CD4+ T cells were activated with CD3/CD28 for 3 days and expanded for an additional 4-6 days (7 to 9 days total). On day 0, frozen CD4+ T cells were thawed, treated with CD3/CD28 Dynabeads, and incubated at 37° C./5% CO2. On day 3, the beads were removed, and the cells were diluted to 5×10^5 cells/cm^2, placed in G-Rex10 flask, and incubated at 37° C./5% CO2. On day 7 to day 9 the cells were removed from the G-Rex flasks, counted and diluted back to 1×10^6 cells/ml in standard tissue culture flask.
The expanded CD4+ T-cells were centrifuged at 300×g for 10 minutes and resuspended to 0.5 million cells per ml (30,000 cells/well). 60 μl of CD4+ T cells were added per well to a 384 well plate containing 0.1 μL of varying concentrations of test compound in DMSO. The plates were incubated for 15 min at 37° C./5% CO2. 20 μl of diluted ImmunoCult™ (STEMCELL Technologies, 1:12.5 in T cell assay media) were added to all wells of the plate (1:50 final assay concentration). The plates were incubated for an additional 20 to 24 hrs at 37° C./5% CO2. The plates were centrifuged at 300×g for 10 minutes. 16 μL of supernatant was removed and combined with 4 μl of IL-2 HTRF Abs. (cisbio kit). Plates were incubated for 3 hours at RT and read with an EnVision plate reader at 665 nm and 615 nm wavelengths. The concentrations and resulting effect values for the tested compound were plotted and the concentration of compound required for 50% effect (IC50) was determined with the four-parameter logistic dose response equation.

[2] = molecular target: IL-2-Inducible T-Cell Kinase (ITK) (Homo sapiens (Human), UniProt Q08881); assay: ITK enzyme assay (IL-2-inducible T-cell kinase activity); assay type: biochemical; conditions: geometric mean of count n
Method: ITK activity was determined by measuring the effect of a test compound in an ITK enzyme assay.
1.0 M HEPES Buffer pH 7.5 solution was prepared as follows: 238.3 g HEPES free acid (Sigma) and 800 mL of water were combined, and the mixture was stirred until complete dissolution. The pH was adjusted to 7.5 via titration with 5N NaOH and the volume adjusted to 1000 mL. The solution was filtered and sterilized.
ITK assay buffer was prepared as follows: 50 mL of HPLC-grade water was treated with 2 mL of 1.0 M HEPES Buffer, 500 μL of 2% Gelatin (Sigma), 1.0 mL of aqueous MgCl2 solution (1.0 M), and 1.0 mL of aqueous glutathione solution (0.5 M), and the solution was mixed. The solution was brought to 99 mL in a graduated cylinder by addition of water and sterilized through a 0.2 μm filter. 0.1 mL of Brij-35™ Surfact-Amps™ Detergent Solution (10% w/v aqueous solution, ThermoFisher) and 1.0 mL of ATP (Teknova,100 mM) were added and the solution was mixed.
Preparation of 1.33× ITK enzyme solution was as follows: 49.99 mL of ITK assay buffer was treated with 4.1 μL of ITK enzyme (ITK FL (N-Flag and C-His tagged, […]) Lake Pharma, 0.25 mg/ml in a buffer containing 25 mM Tris pH 7.8, 150 mM NaCl, 10% glycerol and 2 mM TCEP) and the mixture was gently agitated. The resulting solution was stored on ice. 30 Minutes prior to use, the enzyme solution was removed from ice and equilibrated to RT by incubation in a RT water bath.
Preparation of 4× ITK substrate solution was as follows: 50 mL of ITK assay buffer was treated with 100 μL of BTK peptide (China Peptide Company, 2 mM stock solution in DMSO). The tube was capped, mixed by gently inverting the tube, and then stored on ice. 30 Minutes prior to use, the substrate solution was removed from ice and equilibrated to RT by incubation in a RT water bath.
At the time of assay, 7.5 μL of the 1.33× ITK enzyme solution was added to plate wells containing 0.1 μL of varying concentrations of test compound in DMSO. The plate was incubated 30 min at RT. The plate wells were each treated with 2.5 uL of the 4× ITK substrate solution and the plate was sealed (TopSeal™, Perkin Elmer). The plate was spun at 1000 rpm for 30 sec and then incubated for 60 min at RT. The seal was removed, and each well was treated with 10 μL of Stop/Detect Buffer (20 mM HEPES pH 7.5, 0.01% gelatin, 1 nM LANCE PT66 (Perkin Elmer), 16.5 μg/ml Surelight APC (Perkin Elmer), 10 mM EDTA, 250 mM NaCl). The plate was again covered and was spun at 1000 rpm for […]. The plate was allowed to incubate overnight at RT and in a closed carrier to reduce dehydration. The seal was removed, and the fluorescence was read with a plate reader with an excitation wavelength of […]. The concentrations and resulting effect values for the tested compound were plotted and the concentration of compound required for 50% effect (IC50) was determined with the four-parameter logistic dose response equation.

Sequence of IL-2-Inducible T-Cell Kinase (ITK) (Q08881 whole entry): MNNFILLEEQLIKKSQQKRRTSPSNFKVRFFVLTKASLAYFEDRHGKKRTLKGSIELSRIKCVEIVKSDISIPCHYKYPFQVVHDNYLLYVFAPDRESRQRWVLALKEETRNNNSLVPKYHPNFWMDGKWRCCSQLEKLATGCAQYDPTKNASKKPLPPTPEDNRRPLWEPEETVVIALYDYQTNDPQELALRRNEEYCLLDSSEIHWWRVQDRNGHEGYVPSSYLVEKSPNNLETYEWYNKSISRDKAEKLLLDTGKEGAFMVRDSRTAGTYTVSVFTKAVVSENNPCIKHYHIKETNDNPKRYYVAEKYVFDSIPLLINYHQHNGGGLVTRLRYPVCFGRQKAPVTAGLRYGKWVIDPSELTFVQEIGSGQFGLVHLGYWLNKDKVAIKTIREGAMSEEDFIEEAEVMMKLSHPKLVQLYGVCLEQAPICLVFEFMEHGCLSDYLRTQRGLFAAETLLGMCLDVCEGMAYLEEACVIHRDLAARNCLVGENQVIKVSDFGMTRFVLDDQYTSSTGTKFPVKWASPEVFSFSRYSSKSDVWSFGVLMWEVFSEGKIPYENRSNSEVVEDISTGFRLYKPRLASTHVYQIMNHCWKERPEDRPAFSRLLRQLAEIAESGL

Row | Compound | IC50 [1] [nM] | IC50 [2] [nM]
1 | CN(C(=O)CC1CCOCC1)c1cnc2nc(-c3n[nH]c4c3C[C@@H]3C[C@]3(C)C4)[nH]c2c1 [Example 52, N-Methyl-N-(2-((4aS,5aR)-5a-methyl-1,4,4a,5,5a,6-hexahydrocyclopropa[f]indazol-3-yl)-1H-imidazo[4,5-b]pyridin-6-yl)-2-(tetrahydro-2H-pyran-4-yl)acetamide] | 189 | 51
2 | CN(C(=O)C(C)(C)CN1CCOCC1)c1cnc2nc(-c3n[nH]c4c3C[C@@H]3C[C@]3(C)C4)[nH]c2c1 [Example 53, N,2,2-Trimethyl-N-(2-((4aS,5aR)-5a-methyl-1,4,4a,5,5a,6-hexahydrocyclopropa[f]indazol-3-yl)-1H-imidazo[4,5-b]pyridin-6-yl)-3-morpholinopropanamide] | 304 | 88
3 | CN(C(=O)C12CC(F)(C1)C2)c1cnc2nc(-c3n[nH]c4c3C[C@@H]3C[C@]3(C)C4)[nH]c2c1 [Example 59] | 370 | 109
4 | CN(C(=O)C1(C)CCC(F)(F)CC1)c1cnc2nc(-c3n[nH]c4c3C[C@@H]3C[C@]3(C)C4)[nH]c2c1 [Example 62, 4,4-Difluoro-N,1-dimethyl-N-(2-((4aS,5aR)-5a-methyl-1,4,4a,5,5a,6-hexahydrocyclopropa[f]indazol-3-yl)-1H-imidazo[4,5-b]pyridin-6-yl)cyclohexane-1-carboxamide] | 402 | 141

More lines, in order of falling IC50 [1], values ahead:

Row | IC50 [1] [nM] | IC50 [2] [nM] | Compound
5 | 611 | 54 | CN(C(=O)CN1CCOCC1=O)c1cnc2nc(-c3n[nH]c4c3C[C@@H]3C[C@]3(C)C4)[nH]c2c1 [Example 56, N-Methyl-N-(2-((4aS,5aR)-5a-methyl-1,4,4a,5,5a,6-hexahydrocyclopropa[f]indazol-3-yl)-1H-imidazo[4,5-b]pyridin-6-yl)-2-(3-oxomorpholino)acetamide]
6 | 338 | 40 | CN(C(=O)C1(C2CCC2)CCC1)c1cnc2nc(-c3n[nH]c4c3C[C@@H]3C[C@]3(C)C4)[nH]c2c1 [Example 63, N-Methyl-N-(2-((4aS,5aR)-5a-methyl-1,4,4a,5,5a,6-hexahydrocyclopropa[f]indazol-3-yl)-1H-imidazo[4,5-b]pyridin-6-yl)-[1,1′-bi(cyclobutane)]-1-carboxamide]
7 | 294 | 123 | CN(C(=O)C1CCOCC1)c1cnc2nc(-c3n[nH]c4c3C[C@@H]3C[C@]3(C)C4)[nH]c2c1 [Example 46, N-Methyl-N-(2-((4aS,5aR)-5a-methyl-1,4,4a,5,5a,6-hexahydrocyclopropa[f]indazol-3-yl)-1H-imidazo[4,5-b]pyridin-6-yl)tetrahydro-2H-pyran-4-carboxamide]
8 | 182 | 63 | CN(C(=O)C(C)(C)C1CCOCC1)c1cnc2nc(-c3n[nH]c4c3CC3C[C@]3(C)C4)[nH]c2c1 (stereo partly drawn) [Example 60, N,2-Dimethyl-N-(2-((4aS,5aR)-5a-methyl-1,4,4a,5,5a,6-hexahydrocyclopropa[f]indazol-3-yl)-1H-imidazo[4,5-b]pyridin-6-yl)-2-(tetrahydro-2H-pyran-4-yl)propenamide]
9 | 108 | 37 | CN(C(=O)C1CCCCC1)c1cnc2nc(-c3n[nH]c4c3C[C@@H]3C[C@]3(C)C4)[nH]c2c1 [Example 51, N-Methyl-N-(2-((4aS,5aR)-5a-methyl-1,4,4a,5,5a,6-hexahydrocyclopropa[f]indazol-3-yl)-1H-imidazo[4,5-b]pyridin-6-yl)cyclohexanecarboxamide]
10 | 93 | 20 | CN(C(=O)C1C[C@@H]2[C@H](C1)C2(F)F)c1cnc2nc(-c3n[nH]c4c3C[C@@H]3C[C@]3(C)C4)[nH]c2c1 (stereo partly drawn) [Example 55, (1R,5S)-6,6-Difluoro-N-methyl-N-(2-((4aS,5aR)-5a-methyl-1,4,4a,5,5a,6-hexahydrocyclopropa[f]indazol-3-yl)-1H-imidazo[4,5-b]pyridin-6-yl)bicyclo[3.1.0]hexane-3-carboxamide]
